# Source: US20070197512A1, “Carboxylic Acid Compounds and Use Thereof” (Japan Tobacco Inc., priority 2006, published 2007)
# Target: T1, human URAT1 (Homo sapiens, UniProt Q96S37)
# T1 construct: Human URAT1 full length cDNA was subcloned to expression vector pcDNA3.1; expressed in transfected cells; host or cells: HEK293 cells (pcDNA3.1, geneticin-selected)
# T1 sequence (Q96S37 1-553): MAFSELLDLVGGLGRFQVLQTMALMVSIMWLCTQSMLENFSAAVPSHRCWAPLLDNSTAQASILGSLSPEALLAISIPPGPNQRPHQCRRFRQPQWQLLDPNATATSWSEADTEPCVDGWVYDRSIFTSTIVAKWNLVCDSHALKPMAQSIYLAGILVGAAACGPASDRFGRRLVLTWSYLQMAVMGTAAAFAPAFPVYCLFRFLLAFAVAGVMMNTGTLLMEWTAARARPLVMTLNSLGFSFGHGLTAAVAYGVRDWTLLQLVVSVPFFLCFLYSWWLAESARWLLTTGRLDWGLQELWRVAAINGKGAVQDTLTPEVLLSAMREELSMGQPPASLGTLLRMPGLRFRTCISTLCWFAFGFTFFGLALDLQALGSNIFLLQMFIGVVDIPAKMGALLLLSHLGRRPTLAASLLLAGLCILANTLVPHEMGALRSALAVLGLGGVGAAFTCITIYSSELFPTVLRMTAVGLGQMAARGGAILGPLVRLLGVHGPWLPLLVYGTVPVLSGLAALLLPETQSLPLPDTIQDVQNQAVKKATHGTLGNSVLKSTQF
# Experiment: Uric acid transport inhibitory test using human URAT1-expressing cells
# Type: cell-based
# Conditions: human URAT1-expressing HEK293 cells, 14C-uric acid 50 μM, uptake 5 min, room temperature; read-out: hURAT1 IC50
# From the text: Experimental Example 1 Uric Acid Transport Inhibitory Test Using Human URAT1-Expressing Cells
# Human URAT1 full length cDNA was subcloned to expression vector pcDNA3.1 and human URAT1 gene was transfected into human embryonic kidney derived cell line (HEK293 cells) by liposome method using Lipofectamine2000. Simultaneously, HEK293 cells transfected with expression vector pcDNA3.1 alone (hereinafter mock cells) were also produced. HEK293 cells expressing human URAT1 gene or mock cells were selected with geneticin resistance as an index. The functional expression of human URAT1 gene was confirmed by a method similar to the following method, using ^14C-uric acid transport into the cells as an index.
# Human URAT1-expressing HEK293 cells or mock cells were cultured in Dulbecco's modified Eagle's MEM medium (high glucose) containing 10% fetal bovine serum, 0.5 mg/mL geneticin sulfate, 100 units/mL penicillin and 100 μg/mL streptomycin under the conditions of 37° C. and 5% CO2 in an incubator. The cells were plated in a 96 well plate (poly-D-Lysine coated) at 1×10^5 cells/well and the following uric acid transport inhibitory test was performed 24 hr later. This test was performed at room temperature.
# After the medium was removed by aspiration from each well, the cells were washed once with Hank's Balanced Salt Solution (HBSS) and preincubated with HBSS (100 μL/well) for 5 min. HBSS was aspirated and an assay buffer (wherein NaCl in the above-mentioned HBSS had been substituted with Na-gluconate) containing various concentrations of the Example compound and a radioactive ligand (14C-uric acid; final concentration 50 μM) was added to each well at 50 μL/well and an uptake reaction was carried out for 5 min. After the reaction, the cells were washed twice with ice-cold HBSS (150 μL/well), and Microscinti™ 20 (PerkinElmer) was added at 50 μL/well. The cells were lysed by stirring and the radioactivity of each well was measured by a liquid scintillation counter (TOP COUNT, Packard).
# The uric acid transport rate (%) of the Example compound at each concentration was calculated relative to the radioactivity (difference in radioactivity between human URAT1-expressing HEK293 cells and mock cells without addition of Example compound (DMSO addition)) showing URAT1 specific uric acid transport as 100%, and the concentration (IC50) of the Example compound necessary for inhibiting the uric acid transport rate by 50% was determined. In Table 24-Table 27, “+++” means IC50 value of less than 300 nM, “++” means IC50 value of 300 nM to less than 3000 nM, and “+” means IC50 value of not less than 3000 nM.
row,SMILES,IC50
1,"CC(C)c1cccc2c1OC(C(C)C)C(=O)N2CCCC(=O)O (centres unmarked) [Example 18, 4-(2,8-diisopropyl-3-oxo-2,3-dihydrobenzo[1,4]oxazin-4-yl)butyric acid]",≥ 3 µM
2,"CCC1CN(C(=O)/C=C/C(=O)O)c2cccc(C(C)C)c2O1 (centres unmarked) [Example 67, (E)-4-(2-ethyl-8-isopropyl-2,3-dihydrobenzo[1,4]oxazin-4-yl)-4-oxo-2-butenoic acid]",0.3 to 3 µM
3,"O=C(O)CN1C(=S)CSc2ccccc21 [Example 12, (3-thioxo-2,3-dihydrobenzo[1,4]thiazin-4-yl)acetic acid]",≥ 3 µM
4,"Cc1cc(C)c2c(c1)N(C(=O)/C=C/C(=O)O)CCO2 [Example 85, (E)-4-(6,8-dimethyl-2,3-dihydrobenzo[1,4]oxazin-4-yl)-4-oxo-2-butenoic acid]",≥ 3 µM
5,"CC(C)C1CN(C(=O)/C=C/C(=O)O)c2cccc(Br)c2O1 (centres unmarked) [Example 78, (E)-4-(8-bromo-2-isopropyl-2,3-dihydrobenzo[1,4]oxazin-4-yl)-4-oxo-2-butenoic acid]",≥ 3 µM
6,"Cc1cc(Cl)cc2c1OC(C(C)C)C(=O)N2CCC(=O)O (centres unmarked) [Example 81, 3-(6-chloro-2-isopropyl-8-methyl-3-oxo-2,3-dihydrobenzo[1,4]oxazin-4-yl)propionic acid]",< 0.3 µM
7,"CC(C)C1Oc2c(Cl)cc(Cl)cc2N(CCC(=O)O)C1=O (centres unmarked) [Example 80, 3-(6,8-dichloro-2-isopropyl-3-oxo-2,3-dihydrobenzo[1,4]oxazin-4-yl)propionic acid]",< 0.3 µM
8,"CCC1Oc2c(C(C)C)cccc2N(CC(=O)O)C1=O (centres unmarked) [Example 39, (2-ethyl-8-isopropyl-3-oxo-2,3-dihydrobenzo[1,4]oxazin-4-yl)acetic acid]",≥ 3 µM
9,"Cc1cc(C)c2c(c1)N(CCC(=O)O)C(=O)C(C)(C)O2 [Example 89, 3-(2,2,6,8-tetramethyl-3-oxo-2,3-dihydrobenzo[1,4]oxazin-4-yl)propionic acid]",≥ 3 µM
10,"CCc1cccc2c1OC(c1ccccc1)C(=O)N2CCC(=O)O (centres unmarked) [Example 59, 3-(8-ethyl-3-oxo-2-phenyl-2,3-dihydrobenzo[1,4]oxazin-4-yl)propionic acid]",0.3 to 3 µM
11,"COc1cc(C)c2c(c1)N(CCC(=O)O)C(=O)C(C(C)C)O2 (centres unmarked) [Example 104, 3-(2-isopropyl-6-methoxy-8-methyl-3-oxo-2,3-dihydrobenzo[1,4]oxazin-4-yl)propionic acid]",< 0.3 µM
12,"CC(C)c1cccc2c1OC(c1ccccc1)CN2C(=O)/C=C/C(=O)O (centres unmarked) [Example 45, (E)-4-(8-isopropyl-2-phenyl-2,3-dihydrobenzo[1,4]oxazin-4-yl)-4-oxo-2-butenoic acid]",0.3 to 3 µM
13,"CC1(C)Oc2ccccc2N(CC(=O)O)C1=S [Example 11, (2,2-dimethyl-3-thioxo-2,3-dihydrobenzo[1,4]oxazin-4-yl)acetic acid]",≥ 3 µM
14,"CCCCC1Oc2c(C)cc(C)cc2N(CCC(=O)O)C1=O (centres unmarked) [Example 93, 3-(2-butyl-6,8-dimethyl-3-oxo-2,3-dihydrobenzo[1,4]oxazin-4-yl)propionic acid]",0.3 to 3 µM
15,"Cc1ccc2c(c1)N(CCC(=O)O)C(=O)C(C(C)C)O2 (centres unmarked) [Example 58, 3-(2-isopropyl-6-methyl-3-oxo-2,3-dihydrobenzo[1,4]oxazin-4-yl)propionic acid]",0.3 to 3 µM
16,"CC(C)C1CN(C(=O)/C=C/C(=O)O)c2ccc(Cl)cc2O1 (centres unmarked) [Example 68, (E)-4-(7-chloro-2-isopropyl-2,3-dihydrobenzo[1,4]oxazin-4-yl)-4-oxo-2-butenoic acid]",0.3 to 3 µM
17,"CC(C)c1cccc2c1OC(C(C)C)CN2C(=O)C(=O)O (centres unmarked) [Example 29, (2,8-diisopropyl-2,3-dihydrobenzo[1,4]oxazin-4-yl)oxoacetic acid]",≥ 3 µM
18,"CC(C)c1cccc2c1OC(C(C)C)C(=O)N2Cc1ccccc1C(=O)O (centres unmarked) [Example 41, 2-[(2,8-diisopropyl-3-oxo-2,3-dihydrobenzo[1,4]oxazin-4-yl)methyl]benzoic acid]",≥ 3 µM

row,SMILES,IC50
1,"O=C(O)/C=C/C(=O)N1CCOc2ccccc21 [Example 28, (E)-4-(2,3-dihydrobenzo[1,4]oxazin-4-yl)-4-oxo-2-butenoic acid]",≥ 3 µM
2,"CC(C)c1cccc2c1OCC(=O)N2CC(=O)O [Example 10, (8-isopropyl-3-oxo-2,3-dihydrobenzo[1,4]oxazin-4-yl)acetic acid]",≥ 3 µM
3,"CC(C)c1cccc2c1OCC(=O)N2CCC(=O)O [Example 35, 3-(8-isopropyl-3-oxo-2,3-dihydrobenzo[1,4]oxazin-4-yl)propionic acid]",≥ 3 µM
4,"Cc1ccc2c(c1)OC(C(C)C)C(=O)N2CCC(=O)O (centres unmarked) [Example 43, 3-(2-isopropyl-7-methyl-3-oxo-2,3-dihydrobenzo[1,4]oxazin-4-yl)propionic acid]",0.3 to 3 µM
5,"Cc1ccc2c(c1)OC(c1ccccc1)CN2C(=O)/C=C/C(=O)O (centres unmarked) [Example 57, (E)-4-(7-methyl-2-phenyl-2,3-dihydrobenzo[1,4]oxazin-4-yl)-4-oxo-2-butenoic acid]",≥ 3 µM
6,"CCC1Oc2c(C(C)C)cccc2N(CCC(=O)O)C1=O (centres unmarked) [Example 40, 3-(2-ethyl-8-isopropyl-3-oxo-2,3-dihydrobenzo[1,4]oxazin-4-yl)propionic acid]",0.3 to 3 µM
7,"Cc1cccc2c1OC(c1ccccc1)C(=O)N2CCC(=O)O (centres unmarked) [Example 47, 3-(8-methyl-3-oxo-2-phenyl-2,3-dihydrobenzo[1,4]oxazin-4-yl)propionic acid]",0.3 to 3 µM
8,"O=C(O)CCCCC(=O)N1CCOc2ccccc21 [Example 27, 6-(2,3-dihydrobenzo[1,4]oxazin-4-yl)-6-oxohexanoic acid]",≥ 3 µM
9,"CC(C)(C)c1cccc2c1OC(c1ccccc1)C(=O)N2CCC(=O)O (centres unmarked) [Example 49, 3-(8-tert-butyl-3-oxo-2-phenyl-2,3-dihydrobenzo[1,4]oxazin-4-yl)propionic acid]",0.3 to 3 µM
10,"Cc1cc(C)c2c(c1)N(CCC(=O)O)C(=O)C(Cc1ccccc1)O2 (centres unmarked) [Example 92, 3-(2-benzyl-6,8-dimethyl-3-oxo-2,3-dihydrobenzo[1,4]oxazin-4-yl)propionic acid]",≥ 3 µM
11,"CC(C)C1Oc2cc(Cl)ccc2N(CCC(=O)O)C1=O (centres unmarked) [Example 62, 3-(7-chloro-2-isopropyl-3-oxo-2,3-dihydrobenzo[1,4]oxazin-4-yl)propionic acid]",0.3 to 3 µM
12,"CC(C)c1cccc2c1OC(C(C)C)C(=S)N2CCCC(=O)O (centres unmarked) [Example 20, 4-(2,8-diisopropyl-3-thioxo-2,3-dihydrobenzo[1,4]oxazin-4-yl)butyric acid]",≥ 3 µM
13,"CC(C)c1cccc2c1OC(C)(C)C(=O)N2CC(=O)O [Example 34, (8-isopropyl-2,2-dimethyl-3-oxo-2,3-dihydrobenzo[1,4]oxazin-4-yl)acetic acid]",≥ 3 µM
14,"CC(C)c1cccc2c1OC(C)(C)C(=O)N2CCC(=O)O [Example 33, 3-(8-isopropyl-2,2-dimethyl-3-oxo-2,3-dihydrobenzo[1,4]oxazin-4-yl)propionic acid]",≥ 3 µM
15,"CC(C)c1cccc2c1OC(c1ccccc1)C(=O)N2CC(=O)O (centres unmarked) [Example 26, (8-isopropyl-3-oxo-2-phenyl-2,3-dihydrobenzo[1,4]oxazin-4-yl)acetic acid]",≥ 3 µM
16,"COC(=O)CN1C(=O)CSc2ccccc21 [Example 2, (3-oxo-2,3-dihydrobenzo[1,4]thiazin-4-yl)acetic acid methyl ester]",≥ 3 µM
17,"CC(C)C1Sc2ccccc2N(CCC(=O)O)C1=O (centres unmarked) [Example 22, 3-(2-isopropyl-3-oxo-2,3-dihydrobenzo[1,4]thiazin-4-yl)propionic acid]",0.3 to 3 µM
